Measured values as given in ChEMBL document CHEMBL3885881, “DrugMatrix”.

Organism: Rattus norvegicus
Experiment: DrugMatrix - Regimen: Daily Repeat
Format: toxicity, organism-based, Sprague-Dawley
Set-up: regimen Daily Repeat, gender Male, age 6-8 weeks
Conditions: in vivo, po, 0 mg/kg, route oral GAVAGE, dose level Control, vehicle .5 % CMC; for BASOPHIL / EOSINOPHIL / ERYTHROCYTE COUNT / HEMATOCRIT / HEMOGLOBIN / LEUKOCYTE COUNT / LYMPHOCYTE / MEAN CORPUSCULAR HEMOGLOBIN / MEAN CORPUSCULAR HEMOGLOBIN CONCENTRATION / MEAN CORPUSCULAR VOLUME / MONOCYTE / NEUTROPHIL / PLATELET COUNT: tissue Blood; for ALANINE AMINOTRANSFERASE / ALBUMIN / ALKALINE PHOSPHATASE / ASPARTATE AMINOTRANSFERASE / BLOOD UREA NITROGEN / CHLORIDE / CHOLESTEROL / CREATINE PHOSPHOKINASE / CREATININE / GLUCOSE / PHOSPHORUS / POTASSIUM / SODIUM / TOTAL BILIRUBIN / TOTAL PROTEIN: tissue Plasma

Which results are given for `Clc1ccccc1CN1CCc2sccc2C1` [TICLOPIDINE]?
BASOPHIL (72 h, time 3 day): 0%; EOSINOPHIL (72 h, time 3 day): 0%; ERYTHROCYTE COUNT (72 h, time 3 day): 6.19 x10E6/uL; HEMATOCRIT (72 h, time 3 day): 36.94%; HEMOGLOBIN (72 h, time 3 day): 14.58 G/DL; LEUKOCYTE COUNT (72 h, time 3 day): 11.54 x10E3/uL; LYMPHOCYTE (72 h, time 3 day): 84.8%; MEAN CORPUSCULAR HEMOGLOBIN (72 h, time 3 day): 23.58 pg; MEAN CORPUSCULAR HEMOGLOBIN CONCENTRATION (72 h, time 3 day): 39.44 G/DL; MEAN CORPUSCULAR VOLUME (72 h, time 3 day): 59.76 fL; MONOCYTE (72 h, time 3 day): 1.4%; NEUTROPHIL (72 h, time 3 day): 13.8%; PLATELET COUNT (72 h, time 3 day): 1068.8 x10E3/uL; ALANINE AMINOTRANSFERASE (72 h, time 3 day): 38.17 u/L; ALBUMIN (72 h, time 3 day): 3.88 G/DL; ALKALINE PHOSPHATASE (72 h, time 3 day): 391.33 u/L; ASPARTATE AMINOTRANSFERASE (72 h, time 3 day): 69.83 u/L; BLOOD UREA NITROGEN (72 h, time 3 day): 15 mg/dL; CHLORIDE (72 h, time 3 day): 104.17 MEQ/L; CHOLESTEROL (72 h, time 3 day): 72.17 mg/dL; CREATINE PHOSPHOKINASE (72 h, time 3 day): 174.33 u/L; CREATININE (72 h, time 3 day): 0.58 mg/dL; GLUCOSE (72 h, time 3 day): 192.67 mg/dL; PHOSPHORUS (72 h, time 3 day): 10.52 mg/dL; POTASSIUM (72 h, time 3 day): 6.8 MEQ/L; SODIUM (72 h, time 3 day): 149.67 MEQ/L; TOTAL BILIRUBIN (72 h, time 3 day): 0.78 mg/dL; TOTAL PROTEIN (72 h, time 3 day): 6.28 G/DL; BASOPHIL (120 h, time 5 day): 0%; EOSINOPHIL (120 h, time 5 day): 0.17%; ERYTHROCYTE COUNT (120 h, time 5 day): 6.72 x10E6/uL; HEMATOCRIT (120 h, time 5 day): 40.02%; HEMOGLOBIN (120 h, time 5 day): 15.83 G/DL; LEUKOCYTE COUNT (120 h, time 5 day): 9.5 x10E3/uL; LYMPHOCYTE (120 h, time 5 day): 87.17%; MEAN CORPUSCULAR HEMOGLOBIN (120 h, time 5 day): 23.57 pg; MEAN CORPUSCULAR HEMOGLOBIN CONCENTRATION (120 h, time 5 day): 39.62 G/DL; MEAN CORPUSCULAR VOLUME (120 h, time 5 day): 59.55 fL; MONOCYTE (120 h, time 5 day): 1.67%; NEUTROPHIL (120 h, time 5 day): 11%; PLATELET COUNT (120 h, time 5 day): 1053.67 x10E3/uL; ALANINE AMINOTRANSFERASE (120 h, time 5 day): 26.33 u/L; ALBUMIN (120 h, time 5 day): 4.02 G/DL; ALKALINE PHOSPHATASE (120 h, time 5 day): 316.67 u/L; ASPARTATE AMINOTRANSFERASE (120 h, time 5 day): 61.33 u/L; BLOOD UREA NITROGEN (120 h, time 5 day): 18.67 mg/dL; CHLORIDE (120 h, time 5 day): 108 MEQ/L; CHOLESTEROL (120 h, time 5 day): 65.17 mg/dL; CREATINE PHOSPHOKINASE (120 h, time 5 day): 161.17 u/L; CREATININE (120 h, time 5 day): 0.75 mg/dL; GLUCOSE (120 h, time 5 day): 177.33 mg/dL; PHOSPHORUS (120 h, time 5 day): 9.72 mg/dL; POTASSIUM (120 h, time 5 day): 6.18 MEQ/L; SODIUM (120 h, time 5 day): 150.5 MEQ/L; TOTAL BILIRUBIN (120 h, time 5 day): 0.68 mg/dL; TOTAL PROTEIN (120 h, time 5 day): 6.55 G/DL
